Results on 13 molecules are retold here after US11919901B2 (Syndax Pharmaceuticals, Inc., priority 2021, dated 2024).

In one series the test system is MV4-11 cells. As to the kind of experiment: Cell proliferation assay MV4;11 (CellTiter-Glo, 72 hours). Type of series: cell-based. The conditions noted are these: Homo sapiens; MV4;11 leukemia cell line, 72 hours; read-out: MV4; 11 IC50. On the procedure: Compounds were evaluated for its capacity to inhibit the proliferation of the MLLr leukemia cell line MV4-11 that harbors an MLL1-AF4 fusion protein. MV4-11 cells were cultured for 72 hours with limiting dilutions of compounds and viability was measured using CellTiter-Glo.
Compounds were dissolved to obtain as 10 mM solution in DMSO. The stock was diluted 1:5 to the top concentration of 2 mM in 100% DMSO. For IC50 determination, serial 1:3.16 dilutions were prepared in 100% DMSO by diluting 20 μL into 43.5 μL of DMSO for 8 concentrations. Each prepared DMSO solution were further diluted 1:500 in the cell culture media to obtain the 2× dosing solutions. The final concentrations of tested compounds in the cell culture media ranged from 0.632 nM to 2000 nM.
MV4-11 cells were cultured in IMDM with 10% FBS and 1× Penicillin-Streptomycin at 5% CO2 and 37° C. A cell suspension was prepared containing 15,000 cells/ml in the culture medium and 100 μL of this suspension was added per well to a 96-well cell culture plate. Then, 100 μL of 2× dosing media containing test compounds were added bringing the total volume to 200 μL. These cells were cultured for 72 hours at 37° C. and 5% CO2 in a humidified incubator.
After 72 hours, the cultured cells were mixed and 100p L was transferred to a 96-well black plate. Cell Titer Glo (100 μl) was then added to this plate. The plate was mixed with shaking for 15 mins at RT, the luminescence was then measured using Tecan Spark 20M spectrophotometer. Cell Viability (%) was determined by RLU of test/RLU average vehicle control*100 and % max inhibition was determined by 100−(% cell viability remaining at the top concentration of compound).

A further series addresses hERG (Homo sapiens (Human), UniProt Q12809). Description: Patch clamp assay (hERG tail currents, whole-cell). Type of series: cell-based. The conditions noted are these: hERG transfected HEK 293 cells; for hERG % Remaining 10 μM: 10 μM compound; for hERG % Remaining 30 μM: 30 μM compound.
For the next series, the target named is Menin-MLL (Homo sapiens (Human), UniProt O00255). As to the kind of experiment: Determination of binding constants (Ki) to Menin-MLL (HTRF). The following applies: HTRF, 0.25 nM H-FL-Menin, 3.2 nM FITC-MLL-4-43, 24 hr incubation; for Ki: read-out: Menin-MLL Ki HTRF Assay: Ki.
Chain of Menin-MLL (O00255 whole entry): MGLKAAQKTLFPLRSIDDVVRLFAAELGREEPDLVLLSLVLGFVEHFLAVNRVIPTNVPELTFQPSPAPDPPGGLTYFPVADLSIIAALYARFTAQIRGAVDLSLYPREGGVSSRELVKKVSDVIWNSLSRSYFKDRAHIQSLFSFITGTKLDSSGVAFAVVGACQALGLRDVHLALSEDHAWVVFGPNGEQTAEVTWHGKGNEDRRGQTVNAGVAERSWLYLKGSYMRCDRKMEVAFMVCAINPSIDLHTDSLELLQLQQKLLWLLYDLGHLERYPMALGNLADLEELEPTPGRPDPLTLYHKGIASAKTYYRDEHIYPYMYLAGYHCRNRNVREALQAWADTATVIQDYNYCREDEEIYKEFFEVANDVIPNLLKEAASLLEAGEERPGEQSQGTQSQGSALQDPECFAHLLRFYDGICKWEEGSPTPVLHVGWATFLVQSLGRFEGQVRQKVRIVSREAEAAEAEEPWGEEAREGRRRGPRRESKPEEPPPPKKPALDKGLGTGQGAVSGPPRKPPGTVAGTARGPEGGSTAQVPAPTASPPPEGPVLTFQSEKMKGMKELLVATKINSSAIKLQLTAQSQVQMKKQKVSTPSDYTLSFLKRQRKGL

Some results are limits rather than exact numbers.

Chain of hERG (Q12809 whole entry): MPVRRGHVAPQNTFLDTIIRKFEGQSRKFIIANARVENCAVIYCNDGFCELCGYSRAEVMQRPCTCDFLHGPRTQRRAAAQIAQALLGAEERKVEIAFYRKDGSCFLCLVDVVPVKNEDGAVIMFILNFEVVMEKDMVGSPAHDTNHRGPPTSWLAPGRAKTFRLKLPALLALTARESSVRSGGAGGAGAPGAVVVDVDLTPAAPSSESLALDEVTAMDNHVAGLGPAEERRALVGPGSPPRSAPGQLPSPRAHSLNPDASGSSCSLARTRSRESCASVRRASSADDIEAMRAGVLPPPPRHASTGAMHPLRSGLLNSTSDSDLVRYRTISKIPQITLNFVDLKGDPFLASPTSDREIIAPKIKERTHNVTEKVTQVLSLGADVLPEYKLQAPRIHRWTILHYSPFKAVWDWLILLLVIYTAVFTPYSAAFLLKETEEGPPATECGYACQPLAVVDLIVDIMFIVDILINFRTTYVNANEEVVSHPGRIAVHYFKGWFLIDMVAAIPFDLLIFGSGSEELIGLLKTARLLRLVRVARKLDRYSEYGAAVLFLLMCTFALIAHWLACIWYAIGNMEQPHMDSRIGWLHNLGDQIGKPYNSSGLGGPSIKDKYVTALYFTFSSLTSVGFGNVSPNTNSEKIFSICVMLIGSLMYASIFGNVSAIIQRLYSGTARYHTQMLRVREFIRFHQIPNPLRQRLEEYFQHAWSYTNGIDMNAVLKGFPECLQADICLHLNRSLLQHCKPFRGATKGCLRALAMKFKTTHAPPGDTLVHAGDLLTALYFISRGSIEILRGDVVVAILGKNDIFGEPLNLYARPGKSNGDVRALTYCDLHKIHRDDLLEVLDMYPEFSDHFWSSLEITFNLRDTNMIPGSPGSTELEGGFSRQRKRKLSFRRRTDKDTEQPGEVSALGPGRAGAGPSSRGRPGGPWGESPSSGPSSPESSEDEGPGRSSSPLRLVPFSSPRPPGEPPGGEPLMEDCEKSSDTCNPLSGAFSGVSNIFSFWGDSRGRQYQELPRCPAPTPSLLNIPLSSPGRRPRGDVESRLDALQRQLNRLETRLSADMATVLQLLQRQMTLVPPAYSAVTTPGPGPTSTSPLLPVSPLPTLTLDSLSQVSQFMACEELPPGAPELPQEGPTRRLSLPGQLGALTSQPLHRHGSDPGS

Regarding `COCCN(C(=O)c1cc(F)ccc1Oc1cncnc1N1CC2(CCN(C[C@@H]3CC[C@@H](NS(=O)(=O)C4CC4)CO3)CC2)C1)C(C)C` [Example 51, 2-((4-(7-(((2S,5R)-5-(Cyclopropanesulfonamido)tetrahydro-2H-pyran-2-yl)methyl)-2,7-diazaspiro[3.5]nonan-2-yl)pyrimidin-5-yl)oxy)-5-fluoro-N-isopropyl-N-(2-methoxyethyl)benzamide], the IC50 in the series on MV4-11 cells was less than 100 nM.

Turning to `CCS(=O)(=O)N[C@@H]1CC[C@@H](CN2CCC3(CC2)CN(c2ncncc2Oc2ccc(F)cc2C(=O)N(C(C)C)[C@H]2CCOC2)C3)OC1` [Example 33, 2-((4-(7-(((2S,5R)-5-(Ethylsulfonamido)tetrahydro-2H-pyran-2-yl)methyl)-2,7-diazaspiro[3.5]nonan-2-yl)pyrimidin-5-yl)oxy)-5-fluoro-N-isopropyl-N-((S)-tetrahydrofuran-3-yl)benzamide], the IC50 in the series with MV4-11 cells was less than 100 nM.

As to `CCN(C(=O)c1cc(F)ccc1Oc1cncnc1N1CC2(CCN(C[C@@H]3CC[C@@H](NS(=O)(=O)c4ccccc4Cl)CO3)CC2)C1)C(C)C` [Example 59, 2-((4-(7-(((2S,5R)-5-((2-Chlorophenyl)sulfonamido)tetrahydro-2H-pyran-2-yl)methyl)-2,7-diazaspiro[3.5]nonan-2-yl)pyrimidin-5-yl)oxy)-N-ethyl-5-fluoro-N-isopropylbenzamide], in the series on MV4-11 cells, the IC50 was less than 100 nM.

Turning to `CC(C)N(CC(F)F)C(=O)c1cc(F)ccc1Oc1cncnc1N1CC2(CCN(C[C@@H]3CC[C@@H](NS(=O)(=O)N(C)CCO)CO3)CC2)C1` [Example 239, N-(2,2-difluoroethyl)-5-fluoro-2-((4-(7-(((2S,5R)-5-((N-(2-hydroxyethyl)-N-methylsulfamoyl)amino)tetrahydro-2H-pyran-2-yl)methyl)-2,7-diazaspiro[3.5]nonan-2-yl)pyrimidin-5-yl)oxy)-N-isopropylbenzamide], the IC50 with MV4-11 cells is less than 100 nM.

With `Cc1nc(S(=O)(=O)N[C@@H]2CC[C@@H](CN3CCC4(CC3)CN(c3ncncc3Oc3ccc(F)cc3C(=O)N3[C@H](C)COC[C@@H]3C)C4)OC2)cs1` [Example 131, N-((3R,6S)-6-((2-(5-(2-((3S,5R)-3,5-Dimethylmorpholine-4-carbonyl)-4-fluorophenoxy)pyrimidin-4-yl)-2,7-diazaspiro[3.5]nonan-7-yl)methyl)tetrahydro-2H-pyran-3-yl)-2-methylthiazole-4-sulfonamide], the IC50 in the series with MV4-11 cells is less than 100 nM.

Take `CC(C)N(C(=O)c1cc(F)ccc1Oc1cncnc1N1CC2(CCN(C[C@@H]3CC[C@@H](NS(=O)(=O)N(C)C)CO3)CC2)C1)[C@@H]1CCOC1` [Example 167, 2-((4-(7-(((2S,5R)-5-((N,N-Dimethylsulfamoyl)amino)tetrahydro-2H-pyran-2-yl)methyl)-2,7-diazaspiro[3.5]nonan-2-yl)pyrimidin-5-yl)oxy)-5-fluoro-N-isopropyl-N-((R)-tetrahydrofuran-3-yl)benzamide]: the IC50 in the series on MV4-11 cells is less than 100 nM.

Take `CCN(C(=O)c1cc(F)ccc1Oc1cncnc1N1CC2(CCN(C[C@@H]3CC[C@@H](NS(=O)(=O)c4cnn(C)c4)CO3)CC2)C1)C(C)C` [Compound 68, N-Ethyl-5-fluoro-N-isopropyl-2-((4-(7-(((2S,5R)-5-((1-methyl-1H-pyrazole)-4-sulfonamido)tetrahydro-2H-pyran-2-yl)methyl)-2,7-diazaspiro[3.5]nonan-2-yl)pyrimidin-5-yl)oxy)benzamide]: at hERG, the “hERG % Remaining 10 μM” value was “+++ (“+++” means ≥66%)”, the “hERG % Remaining 30 μM” value is “+++ (“+++” means ≥66%)” and the IC50 was no less than 50000 nM. In addition, at Menin-MLL, the EC50 is less than 50 nM and the Ki was less than 1 nM.

Regarding `CC(C)N(CC(F)F)C(=O)c1cc(F)ccc1Oc1cncnc1N1CC2(CCN(C[C@@H]3CC[C@@H](NS(N)(=O)=O)CO3)CC2)C1` [Compound 240, N-(2,2-Difluoroethyl)-5-fluoro-N-isopropyl-2-((4-(7-(((2S,5R)-5-(sulfamoylamino)tetrahydro-2H-pyran-2-yl)methyl)-2,7-diazaspiro[3.5]nonan-2-yl)pyrimidin-5-yl)oxy)benzamide], at hERG, the “hERG % Remaining 30 μM” value is reported as “+++ (“+++” means ≥66%)” and the IC50 was no less than 50000 nM. In addition, the Ki at Menin-MLL is less than 1 nM.

`CCN(C(=O)c1cc(F)ccc1Oc1cncnc1N1CC2(CCN(C[C@@H]3CC[C@@H](NS(=O)(=O)C4CCC4)CO3)CC2)C1)C(C)C` [Compound 6, 2-((4-(7-(((2S,5R)-5-(cyclobutanesulfonamido)tetrahydro-2H-pyran-2-yl)methyl)-2,7-diazaspiro[3.5]nonan-2-yl)pyrimidin-5-yl)oxy)-N-ethyl-5-fluoro-N-isopropylbenzamide]: on hERG, the “hERG % Remaining 10 μM” value was “+++ (“+++” means ≥66%)”; the “hERG % Remaining 30 μM” value was “++ (“++” means ≥33% and <66%)”. On Menin-MLL, the EC50 is less than 50 nM and the Ki is less than 1 nM.

With `CC(C)N(CC(F)F)C(=O)c1cc(F)ccc1Oc1cncnc1N1CC2(CCN(C[C@@H]3CC[C@@H](NS(=O)(=O)N4CCC4)CO3)CC2)C1` [Compound 99, 2-((4-(7-(((2S,5R)-5-(Azetidine-1-sulfonamido)tetrahydro-2H-pyran-2-yl)methyl)-2,7-diazaspiro[3.5]nonan-2-yl)pyrimidin-5-yl)oxy)-N-(2,2-difluoroethyl)-5-fluoro-N-isopropylbenzamide], on hERG, the “hERG % Remaining 10 μM” value is “+++ (“+++” means ≥66%)”; the “hERG % Remaining 30 μM” value is “++ (“++” means ≥33% and <66%)”. Moreover, the Ki at Menin-MLL was less than 1 nM.

With `CCN(C(=O)c1cc(F)ccc1Oc1cncnc1N1CC2(CCN(C[C@@H]3CC[C@@H](NS(=O)(=O)C4CC4)CO3)CC2)C1)C(C)C` [Compound 4, 2-((4-(7-(((2S,5R)-5-(cyclopropanesulfonamido)tetrahydro-2H-pyran-2-yl)methyl)-2,7-diazaspiro[3.5]nonan-2-yl)pyrimidin-5-yl)oxy)-N-ethyl-5-fluoro-N-isopropylbenzamide], at hERG, the “hERG % Remaining 10 μM” value is “+++ (“+++” means ≥66%)”, the “hERG % Remaining 30 μM” value is “+++ (“+++” means ≥66%)” and the IC50 was no less than 50000 nM. Besides, at Menin-MLL, the 50% effective concentration (EC50) is less than 50 nM and the Ki was less than 1 nM.

As for `CC(C)N(C(=O)c1cc(F)ccc1Oc1cncnc1N1CC2(CCN(C[C@@H]3CC[C@@H](NS(=O)(=O)C4CC4)CO3)CC2)C1)C1CC1` [Compound 21, 2-((4-(7-(((2S,5R)-5-(cyclopropanesulfonamido)tetrahydro-2H-pyran-2-yl)methyl)-2,7-diazaspiro[3.5]nonan-2-yl)pyrimidin-5-yl)oxy)-N-cyclopropyl-5-fluoro-N-isopropylbenzamide], on hERG, the “hERG % Remaining 10 μM” value was “++ (“++” means ≥33% and <66%)”; the “hERG % Remaining 30 μM” value is given as “+ (“+” means <33%)”. Besides, at Menin-MLL, the EC50 is less than 50 nM and the inhibition constant (Ki) is less than 1 nM.

For the molecule `CCN(C(=O)c1cc(F)ccc1Oc1cncnc1N1CC2(CCN(C[C@@H]3CC[C@@H](NS(=O)(=O)N4CCC4)CO3)CC2)C1)C(C)C` [Compound 69, 2-((4-(7-(((2S,5R)-5-(Azetidine-1-sulfonamido)tetrahydro-2H-pyran-2-yl)methyl)-2,7-diazaspiro[3.5]nonan-2-yl)pyrimidin-5-yl)oxy)-N-ethyl-5-fluoro-N-isopropylbenzamide], on hERG, the “hERG % Remaining 10 μM” value is given as “+++ (“+++” means ≥66%)”; the “hERG % Remaining 30 μM” value was “++ (“++” means ≥33% and <66%)”; the IC50 is 25000 to 50000 nM. At Menin-MLL, the EC50 was less than 50 nM and the Ki was less than 1 nM.
